Source: ChEMBL document CHEMBL4834442, “Immunosuppressive 9,10-Secosteroids from the Gorgonian Verrucella umbraculum Collected in the South China Sea” (J Nat Prod, 2021)
The source made the active and inactive calls. No cut-off for these calls is given here.

Columns and labels:
CD4+ve Th = test: Immunosuppressive activity in C57BL/6 mouse SMNCs-derived CD4+ T cells assessed as inhibition of concanavalinA-stimulated cell proliferation at 1 uM measured after 5 to 7 days by CFSE staining based FACScan flowcytometry; format: functional; details: time 5-7 day
[1] = Cytotoxicity against C57BL/6 mouse spleen mononuclear cells assessed as cell viability at 0.5 to 1 uM measured after 48 hrs by CCK-8 assay; format: cell-based; details: mononuclear cell line, dose 0.5-1 µM

Structure (SMILES)	Activity (CD4+ve Th)	Activity [1]
Cc1ccc(O)cc1CC[C@]1(O)C(=O)CC[C@]2(C)[C@@H]([C@H](C)/C=C/[C@@H](C)C(C)C)CC[C@H]21	Active	Non-Toxic
Cc1ccc(O)cc1CC[C@]1(O)[C@H](O)CC[C@]2(C)[C@@H]([C@H](C)CC[C@@H](C)C(C)C)CC[C@H]21	Active	Non-Toxic
CC(C)=CCC[C@@H](C)[C@H]1CC[C@H]2[C@H](CCc3cc(O)ccc3C)[C@H](O)CC[C@]12C [CALICOFEROL G]	Active	Non-Toxic
C=C(CC[C@@H](C)[C@H]1CC[C@@H]2[C@]1(C)CC[C@@H](O)[C@@]2(O)CCc1cc(O)ccc1C)C(C)C	Active	Non-Toxic
Cc1ccc(O)cc1CC[C@]1(O)[C@H](O)CC[C@]2(C)[C@@H]([C@H](C)/C=C/CC(C)C)CC[C@H]21	Active	Non-Toxic
Cc1ccc(O)cc1CC[C@]1(O)C(=O)CC[C@]2(C)[C@@H]([C@H](C)/C=C/CC(C)C)CC[C@H]21	Active	Non-Toxic
C/C=C(/CC[C@@H](C)[C@H]1CC[C@@H]2[C@]1(C)CC[C@@H](O)[C@@]2(O)CCc1cc(O)ccc1C)C(C)C	inactive	Non-Toxic
Cc1ccc(O)cc1CC[C@]1(O)[C@H](O)CC[C@]2(C)[C@@H]([C@H](C)CCCC(C)C)CC[C@H]21	Active	Non-Toxic
Cc1ccc(O)cc1CC[C@@H]1[C@H](O)CC[C@]2(C)[C@@H]([C@H](C)CCCC(C)C)[C@@H](O)C[C@@H]12 [CALICOFEROL B]	Active	Non-Toxic
Cc1ccc(O)cc1CC[C@]1(O)[C@H](O)CC[C@]2(C)[C@@H]([C@H](C)/C=C/[C@@H](C)C(C)C)CC[C@H]21	Active	Non-Toxic
Cc1ccc(O)cc1CC[C@@H]1[C@H](O)CC[C@]2(C)[C@@H]([C@H](C)/C=C/CC(C)C)CC[C@@H]12	Active	Non-Toxic
Cc1ccc(O)cc1CC[C@@H]1[C@H](O)CC[C@]2(C)[C@@H]([C@H](C)/C=C/[C@@H](C)C(C)C)CC[C@@H]12	Active	Non-Toxic
Cc1ccc(O)cc1CC[C@]1(O)C(=O)CC[C@]2(C)[C@@H]([C@H](C)/C=C/[C@@H](C)C(C)C)C[C@@H](O)[C@H]21	inactive	Non-Toxic
Cc1ccc(O)cc1CC[C@@H]1[C@H](O)CC[C@]2(C)[C@@H]([C@H](C)CCCC(C)C)CC[C@@H]12 [ASTROGORGIADIOL]	Active	Non-Toxic
C=C(CC[C@@H](C)[C@H]1CC[C@H]2[C@H](CCc3cc(O)ccc3C)[C@H](O)CC[C@]12C)C(C)C [CALICOFEROL C]	Active	Non-Toxic
Cc1ccc(O)cc1CC[C@]1(O)[C@H](O)CC[C@]2(C)[C@@H]([C@H](C)CC[C@H](C)C(C)C)CC[C@H]21	Active	Non-Toxic
